Reference: US10414811B2, “Protease-resistant lipidated GLP-1 analogs” (MEDIMMUNE LIMITED, priority 2015, dated 2019)
Where two headings read alike, the source gives them in different places. Numbered stars: 1 amine (or outer) side, 2 acyl side, 3 side chain; on linkers, the order of the positions; unused ones are H or OH. Square brackets hold non-standard residues; d marks the D form. Side chains are listed from the residue outwards. Peptide text beside a SMILES is read from it. * marks the point of attachment. γGlu = O=C(O)[C@H](CCC(=O)[*:2])N[*:1]; αMeF = C[C@](N)(Cc1ccccc1)C(=O)O; αMeK = C[C@](N)(CCCCN)C(=O)O; Lauroyl = CCCCCCCCCCCC(=O)*; αMeS = C[C@](N)(CO)C(=O)O; AEEA = NCCOCCOCC(=O)O; Aib = CC(C)(N)C(=O)O

Experiments:
Format in all cases: cell-based
[1] = biological target: T1, human glucose-dependent insulinotropic peptide receptor (GIPR) (Homo sapiens, UniProt P48546); assay: cAMP assay, human GIPR cells
T1 construct: expressed in transfected cells
T1 sequence (P48546 22-466): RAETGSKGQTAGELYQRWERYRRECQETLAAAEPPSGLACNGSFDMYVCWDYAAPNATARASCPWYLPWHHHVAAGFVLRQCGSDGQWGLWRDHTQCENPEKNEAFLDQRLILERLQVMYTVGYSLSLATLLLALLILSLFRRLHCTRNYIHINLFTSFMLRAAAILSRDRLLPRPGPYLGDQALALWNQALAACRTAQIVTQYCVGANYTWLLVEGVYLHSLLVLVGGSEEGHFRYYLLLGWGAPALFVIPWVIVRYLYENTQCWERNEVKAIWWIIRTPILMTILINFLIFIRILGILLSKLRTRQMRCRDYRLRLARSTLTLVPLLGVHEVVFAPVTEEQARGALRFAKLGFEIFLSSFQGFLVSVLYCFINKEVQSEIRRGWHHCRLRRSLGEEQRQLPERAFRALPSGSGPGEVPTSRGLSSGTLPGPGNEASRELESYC
Outline: (§1)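 Peptide-stimulated cAMP measured by two-step HTRF after a 30 min room-temperature incubation with receptor-expressing cells (hGLP-1R, hGIPR at 1×10^5 cells/ml; hGCGR at 2×10^5 cells/ml). Duplicate dilutions; EC50 from 4-parameter logistic fit of % Delta F.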

[2] = biological target: T2, human glucagon receptor (GCGR) (Homo sapiens, UniProt P47871); assay: cAMP assay, human GCGR cells
T2 construct: expressed in transfected cells
T2 sequence (P47871 26-477): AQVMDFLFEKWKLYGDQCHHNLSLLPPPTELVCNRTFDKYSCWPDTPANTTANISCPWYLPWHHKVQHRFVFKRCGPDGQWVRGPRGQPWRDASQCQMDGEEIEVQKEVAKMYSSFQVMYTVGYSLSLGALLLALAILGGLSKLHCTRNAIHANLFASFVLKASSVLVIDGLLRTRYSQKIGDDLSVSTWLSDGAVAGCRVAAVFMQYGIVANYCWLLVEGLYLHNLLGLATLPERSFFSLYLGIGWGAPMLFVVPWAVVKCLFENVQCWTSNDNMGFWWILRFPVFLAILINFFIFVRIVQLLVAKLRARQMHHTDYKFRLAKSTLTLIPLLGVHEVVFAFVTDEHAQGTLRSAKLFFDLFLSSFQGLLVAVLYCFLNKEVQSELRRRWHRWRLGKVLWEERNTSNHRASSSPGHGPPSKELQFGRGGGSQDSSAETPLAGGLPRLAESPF
Outline: as §1

[3] = biological target: T3, human GLP-1 receptor (GLP-1R) (Homo sapiens, UniProt P43220); assay: cAMP assay, human GLP-1R cells
T3 construct: expressed in transfected cells
T3 sequence (P43220 24-463): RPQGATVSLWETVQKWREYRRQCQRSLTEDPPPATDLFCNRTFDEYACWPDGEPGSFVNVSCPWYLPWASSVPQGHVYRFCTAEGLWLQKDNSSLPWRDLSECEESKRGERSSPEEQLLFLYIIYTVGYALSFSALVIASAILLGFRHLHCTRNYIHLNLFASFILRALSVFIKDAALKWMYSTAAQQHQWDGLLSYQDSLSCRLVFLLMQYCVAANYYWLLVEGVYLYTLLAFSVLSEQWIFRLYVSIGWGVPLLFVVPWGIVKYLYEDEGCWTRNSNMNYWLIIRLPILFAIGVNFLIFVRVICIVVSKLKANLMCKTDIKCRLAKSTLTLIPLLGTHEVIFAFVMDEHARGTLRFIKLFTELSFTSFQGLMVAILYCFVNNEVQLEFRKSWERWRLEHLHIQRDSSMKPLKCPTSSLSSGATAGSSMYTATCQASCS
Outline: as §1

[4] = cAMP assay, first determination (n1), read-out: Primary assay EC50 GLP-1R n1
[5] = cAMP assay, second determination (n2), read-out: Primary assay EC50 GLP-1R n2
[6] = mean of n1 and n2, read-out: Mean pM GLP-1R

EC50 ([1]; tris-lipidated peptides, second replicate, read-out: Primary assay EC50 GIP-R (n2)) [nM] | EC50 ([2]; tris-lipidated peptides, second replicate, read-out: Primary assay EC50 Gluc-R (n2)) [nM] | EC50 ([3]; tris-lipidated peptides, mean of n1 and n2, read-out: Primary assay EC50 Mean pM GLP-1R) [pM] | EC50 ([3]; tris-lipidated peptides, replicate n1, read-out: Primary assay EC50 GLP-1R n1) [pM] | EC50 ([3]; tris-lipidated peptides, replicate n2, read-out: Primary assay EC50 GLP-1R n2) [pM] | EC50 ([1]; cAMP assay, first determination (n1), read-out: Primary assay EC50 GIP-R (n1)) [nM] | EC50 ([1]; cAMP assay, second determination (n2), read-out: Primary assay EC50 GIP-R (n2)) [nM] | EC50 ([2]; cAMP assay, first determination (n1), read-out: Primary assay EC50 Gluc-R (n1)) [nM] | EC50 ([2]; cAMP assay, second determination (n2), read-out: Primary assay EC50 Gluc-R (n2)) [nM] | Compound | EC50 ([1]; Primary assay EC50 GIP-R (n1), cAMP assay, first determination (n1)) [nM] | EC50 ([1]; read-out: Primary assay EC50 GIP-R (n2), cAMP assay, second determination (n2)) [nM] | EC50 ([2]; Primary assay EC50 Gluc-R (n1), cAMP assay, first determination (n1)) [nM] | EC50 ([2]; read-out: Primary assay EC50 Gluc-R (n2), cAMP assay, second determination (n2)) [nM] | EC50 [3, 4] [pM] | EC50 [3, 5] [pM] | EC50 [3, 6] [pM]
20 | 20 | 31.3 | 26 | 36.5 | – | – | – | – | CCCCCCCCCCCC(=O)N[C@@H](CCC(=O)NCCOCCOCC(=O)NCCOCCOCC(=O)NCCCC[C@H](NC(=O)[C@H](C)NC(=O)[C@@H](NC(=O)[C@H](Cc1ccccc1)NC(=O)[C@H](CCCCNC(=O)COCCOCCNC(=O)COCCOCCNC(=O)CC[C@H](NC(=O)CCCCCCCCCCC)C(=O)O)NC(=O)[C@](C)(CCCCN)NC(=O)[C@H](C)NC(=O)[C@H](C)NC(=O)[C@H](CCC(=O)O)NC(=O)CNC(=O)[C@H](CCC(=O)O)NC(=O)[C@H](CCCCNC(=O)COCCOCCNC(=O)COCCOCCNC(=O)CC[C@H](NC(=O)CCCCCCCCCCC)C(=O)O)NC(=O)[C@H](Cc1ccc(O)cc1)NC(=O)[C@H](CO)NC(=O)[C@](C)(CO)NC(=O)[C@@H](NC(=O)[C@H](CC(=O)O)NC(=O)[C@H](CO)NC(=O)[C@@H](NC(=O)[C@](C)(Cc1ccccc1)NC(=O)[C@H](CO)NC(=O)CNC(=O)[C@H](CCC(=O)O)NC(=O)C(C)(C)NC(=O)[C@@H](N)Cc1c[nH]cn1)[C@@H](C)O)C(C)C)[C@@H](C)CC)C(=O)N[C@H](C(=O)N[C@H](C(=O)N[C@@H](CCC(=O)O)C(=O)NCC(=O)NCC(N)=O)C(C)C)C(C)C)C(=O)O [compound 470] (H-H[Aib]EGS[αMeF]TSDV[αMeS]SYK([AEEA-AEEA-γGlu-Lauroyl])EGEAA[αMeK]K([AEEA-AEEA-γGlu-Lauroyl])FIAK([AEEA-AEEA-γGlu-Lauroyl])VVEGG-NH2; N-terminus assumed) | – | – | – | – | – | – | –
– | – | – | – | – | – | – | – | – | CC[C@H](C)[C@H](NC(=O)[C@](C)(Cc1ccccc1)NC(=O)[C@H](CCC(=O)O)NC(=O)[C@H](CCCCNC(=O)CCCCCNC(=O)CCCCCNC(=O)CCCCCNC(=O)CCCCCCCCCCCOc1ccc(C(=O)O)cc1)NC(=O)[C@H](C)NC(=O)[C@H](C)NC(=O)[C@H](CCC(=O)O)NC(=O)CNC(=O)[C@H](CCC(=O)O)NC(=O)[C@H](CC(C)C)NC(=O)[C@](C)(Cc1ccccc1)NC(=O)[C@H](CO)NC(=O)[C@](C)(CO)NC(=O)[C@@H](NC(=O)[C@H](CC(=O)O)NC(=O)[C@H](CO)NC(=O)[C@@H](NC(=O)[C@](C)(Cc1ccccc1)NC(=O)[C@H](CO)NC(=O)CNC(=O)[C@H](CCC(=O)O)NC(=O)C(C)(C)NC(=O)[C@@H](N)Cc1c[nH]cn1)[C@@H](C)O)C(C)C)C(=O)N[C@@H](C)C(=O)N[C@@](C)(Cc1ccccc1)C(=O)N[C@H](C(=O)N[C@H](C(=O)N[C@@](C)(CCCCN)C(=O)NCC(=O)NCC(N)=O)C(C)C)C(C)C [compound 142] | ≥ 26 | ≥ 26 | ≥ 26 | ≥ 26 | 12 | 7.9 | 10.1
– | – | – | – | – | ≥ 28 | ≥ 28 | ≥ 28 | ≥ 28 | CCCCCCCCCCCC(=O)N[C@@H](CCC(=O)NCCCC[C@H](NC(=O)[C@@H](NC(=O)[C@@H](NC(=O)[C@](C)(Cc1ccccc1)NC(=O)[C@H](C)NC(=O)[C@@H](NC(=O)[C@](C)(Cc1ccccc1)NC(=O)[C@H](CCC(=O)O)NC(=O)[C@](C)(CCCCN)NC(=O)[C@H](C)NC(=O)[C@H](C)NC(=O)[C@H](CCC(=O)O)NC(=O)CNC(=O)[C@H](CCC(=O)O)NC(=O)[C@H](CC(C)C)NC(=O)[C@](C)(Cc1ccccc1)NC(=O)[C@H](CO)NC(=O)[C@](C)(CO)NC(=O)[C@@H](NC(=O)[C@H](CC(=O)O)NC(=O)[C@H](CO)NC(=O)[C@@H](NC(=O)[C@](C)(Cc1ccccc1)NC(=O)[C@H](CO)NC(=O)CNC(=O)[C@H](CCC(=O)O)NC(=O)C(C)(C)NC(=O)[C@@H](N)Cc1c[nH]cn1)[C@@H](C)O)C(C)C)[C@@H](C)CC)C(C)C)C(C)C)C(=O)NCC(=O)NCC(N)=O)C(=O)O [compound 164] | – | – | – | – | 22 | 7.8 | 14.6
